Assay results reported in patent US11141384B2, “Long-acting formulations” (Janssen Pharmaceutica NV, priority 2017, dated 2021).
Like-named read-outs stand apart in the source and are kept apart here.

Key:
[1] = in vivo; cited from earlier work
M. tuberculosis H37Rv = format: in vivo, Mycobacterium tuberculosis; settings: for Mean (SD) log10 M. tuberculosis CFU/lung: 5 days per week
[2] = Oral (PO) 13 week toxicity study, comparison with dog IM/SC exposure; format: in vivo, beagle dog; settings: 13 week PO study, 18 mg/kg
[3] = Oral (PO) 13 week toxicity study in rats, total exposure; format: in vivo; settings: rat, top dose of 13 week study
M lepra = settings: cited from earlier work
[4] = biological target: mycobacterial ATP synthase (Mycobacterium tuberculosis, UniProt P9WPS1+P9WPV7); settings: cited from earlier work

**Q.** With `CNCC[C@@](O)(c1cccc2ccccc12)[C@H](c1ccccc1)c1cc2cc(Br)ccc2nc1OC` [Formulation M2] as the compound, how does the “mean terminal elimination half-life” value [1] read?
**A.** The value was “approximately 5.5 months”.

**Q.** What does the source list for `CO[C@H]1/C=C/O[C@@]2(C)Oc3c(C)c(O)c4c(O)c(c(/C=N/N5CCN(C)CC5)c(O)c4c3C2=O)NC(=O)/C(C)=C\C=C\[C@H](C)[C@H](O)[C@@H](C)[C@@H](O)[C@@H](C)[C@H](OC(C)=O)[C@@H]1C` [R, rifampin]?
**A.** reduction of mean M. tuberculosis lung CFU count compared to untreated mice (M. tuberculosis H37Rv; 10 mg/kg by gavage 5/7, after 4 weeks of treatment): approximately 1 log10 CFU/lung; reduction of mean M. tuberculosis lung CFU count compared to untreated mice (M. tuberculosis H37Rv; 10 mg/kg by gavage 5/7, after 8 weeks of treatment): about 2 log10 CFU/lung; reduction of mean M. tuberculosis lung CFU count compared to untreated mice (M. tuberculosis H37Rv; 10 mg/kg by gavage 5/7, after 12 weeks of treatment): ~3 log10 CFU/lung; Mean (SD) log10 M. tuberculosis CFU/lung (M. tuberculosis H37Rv; regimen R10 (5/7): rifampin 10 mg/kg, Week 4 of treatment): 3.39 (0.46) log10 CFU/lung; Mean (SD) log10 M. tuberculosis CFU/lung (M. tuberculosis H37Rv; regimen R10 (5/7): rifampin 10 mg/kg, Week 8 of treatment): 2.74 (0.62) log10 CFU/lung; Mean (SD) log10 M. tuberculosis CFU/lung (M. tuberculosis H37Rv; regimen R10 (5/7): rifampin 10 mg/kg, Week 12 of treatment): 1.27 (0.85) log10 CFU/lung

**Q.** Which results are given for `COc1nc2ccc(Br)cc2cc1[C@@H](c1ccccc1)[C@@](O)(CCN(C)C)c1cccc2ccccc12` [bedaquiline]?
**A.** total exposure after PO for the same period [2]: 13 988 520 ng·h/mL; decline in lung CFU compared to untreated control mice (M. tuberculosis H37Rv; 2.67 mg/kg by gavage 5/7, 12 weeks (total 160 mg/kg)): 1.7 log10 CFU/lung; decline in lung CFU counts (M. tuberculosis H37Rv; 5.33 mg/kg by gavage 5/7, 12 weeks (total 320 mg/kg)): about 3 log10 CFU/lung; additional decrease of lung CFU counts (M. tuberculosis H37Rv; 8 mg/kg by gavage 5/7, 8 weeks versus 4 weeks): 1 log10; decline in lung CFU relative to untreated mice (M. tuberculosis H37Rv; 8 mg/kg by gavage 5/7, four weeks): about 1.5 log10 CFU/lung; reduction of M. tuberculosis lung CFU compared to untreated mice (M. tuberculosis H37Rv; 25 mg/kg by gavage 5/7, after 4 weeks): about 1.7 log10 CFU/lung; reduction of M. tuberculosis lung CFU compared to untreated mice (M. tuberculosis H37Rv; 25 mg/kg by gavage 5/7, after 8 weeks): ~4.0 log10 CFU/lung; reduction of M. tuberculosis lung CFU compared to untreated mice (M. tuberculosis H37Rv; 25 mg/kg by gavage 5/7, after 12 weeks): ~4.9 log10 CFU/lung; Mean (SD) log10 M. tuberculosis CFU/lung (M. tuberculosis H37Rv; regimen B2.67 (5/7): oral bedaquiline 2.67 mg/kg, Week 4 of treatment): 3.96 (0.35) log10 CFU/lung; Mean (SD) log10 M. tuberculosis CFU/lung (M. tuberculosis H37Rv; regimen B2.67 (5/7): oral bedaquiline 2.67 mg/kg, Week 8 of treatment): 3.52 (0.38) log10 CFU/lung; Mean (SD) log10 M. tuberculosis CFU/lung (M. tuberculosis H37Rv; regimen B2.67 (5/7): oral bedaquiline 2.67 mg/kg, Week 12 of treatment): 3.16 (0.24) log10 CFU/lung; Mean (SD) log10 M. tuberculosis CFU/lung (M. tuberculosis H37Rv; regimen B5.33 (5/7): oral bedaquiline 5.33 mg/kg, Week 4 of treatment): 3.83 (0.25) log10 CFU/lung; Mean (SD) log10 M. tuberculosis CFU/lung (M. tuberculosis H37Rv; regimen B5.33 (5/7): oral bedaquiline 5.33 mg/kg, Week 8 of treatment): 3.15 (0.47) log10 CFU/lung; Mean (SD) log10 M. tuberculosis CFU/lung (M. tuberculosis H37Rv; regimen B5.33 (5/7): oral bedaquiline 5.33 mg/kg, Week 12 of treatment): 1.98 (0.17) log10 CFU/lung; Mean (SD) log10 M. tuberculosis CFU/lung (M. tuberculosis H37Rv; regimen B8 (5/7): oral bedaquiline 8 mg/kg, Week 4 of treatment): 3.30 (0.12) log10 CFU/lung; Mean (SD) log10 M. tuberculosis CFU/lung (M. tuberculosis H37Rv; regimen B8 (5/7): oral bedaquiline 8 mg/kg, Week 8 of treatment): 2.42 (0.26) log10 CFU/lung; Mean (SD) log10 M. tuberculosis CFU/lung (M. tuberculosis H37Rv; regimen B8 (5/7): oral bedaquiline 8 mg/kg, Week 12 of treatment): 0.69 (0.43) log10 CFU/lung; Mean (SD) log10 M. tuberculosis CFU/lung (M. tuberculosis H37Rv; regimen B25 (5/7): oral bedaquiline 25 mg/kg, Week 4 of treatment): 3.01 (0.45) log10 CFU/lung; Mean (SD) log10 M. tuberculosis CFU/lung (M. tuberculosis H37Rv; regimen B25 (5/7): oral bedaquiline 25 mg/kg, Week 8 of treatment): 0.82 (0.49) log10 CFU/lung; Mean (SD) log10 M. tuberculosis CFU/lung (M. tuberculosis H37Rv; regimen B25 (5/7): oral bedaquiline 25 mg/kg, Week 12 of treatment): 0.07 (0.09) log10 CFU/lung; total exposure after PO administration during 3 months [3]: 2 385 383 ng·h/mL; mean terminal elimination half-life [1]: approximately 5.5 months; minimal dose killing 99% of bacilli (M lepra): < 5.0 mg/kg/wk; selectivity index for mycobacterial ATP synthase versus eukaryotic mitochondrial ATP synthase [4]: more than 20000
